According to patent publication US9149041B2, “Stabilized and activated bromine solutions as a biocide and as an antifouling agent” (Bromine Compounds Ltd., priority 2009, dated 2015):

Columns and labels:
Format in all cases: cell-based
[1] = system: Pseudomonas aeruginosa (ATCC 15442) entrapped in alginate gel beads; test: Biocidal activity against simulated biofilm systems (alginate beads), Example 60
Procedure: The biofilm simulation was created by entrapping bacteria in alginate gel beads. […] Buffer phosphate at pH 7.2 was used to scrap off the bacteria from the agar plate and to create a suspension. The bacterial suspension was mixed with an equal volume of an aqueous 4% sodium alginate solution, to make a final 2% alginate solution. The alginate and bacterial slurry were placed in a 50 ml syringe attached to a gauge needle (22), connected to a compressed air tank, allowing the syringe to be pressurized. At 20 psig pressure a stream of small drops was forced out and dropped into a stirred solution of 50 mM CaCl2. The Ca^+2 hardened the alginate, and semi solid beads with entrapped bacterial cells were formed. The beads were allowed to stir in the CaCl2 solution for about 20 minutes, and then rinsed in a dilute 5 mM CaCl2 solution. Several flasks containing 100 beads each were incubated overnight at 35° C. on a rotating shaker in a buffer solution (at pH 7) with 5 mM addition of CaCl2 to maintain the beads structure. The resulting beads diameter is about 2 mm.
The neutralizer-citrate solution was placed in the refrigerator for 2 hours, than diluted and placed on R2A agar plates using pour plate technique. The plates were incubated at 35° C. for 24-48 hours and counted. The efficacy and toxicity of the neutralizer were checked as well as a control experiment without biocide addition. Four concentrations (0.5, 1, 2.5 and 5 ppm) were tested at four different contact times (5, 15, 30, and 60 min). […] In addition, the efficacy of bromourea from chlorourea and NaBr (1:0.5 molar ratio) was tested at the same concentrations (mentioned above) and after a long contact time of 24 hours (Table 23).

[2] = system: Pseudomonas aeruginosa (ATCC 15442); test: Microbial efficacy (% bacteria killed) at different TOC loading against Pseudomonas aeruginosa (Example 60)
Procedure: Pseudomonas aeruginosa (ATCC 15442) […]
2) 1 ml of each sample was inoculated on R2A agar (pour plate method). The result stands for the bacteria count at zero time. […]
(§1) 4) After 30 min. of shaking (100 rpm), 1 ml of each sample was transferred to a tube filled with 9 ml of the neutralization solution. An aliquot of 1 ml was taken from this solution and added to another tube containing 9 ml of buffer solution. The solution was mixed under vortex. This operation was repeated for 4 more times.
(§2) 5) 1 ml from the two lowest dilutions was inoculated on a R2A agar (by the pour plate method).
(§3) 6) After the plates were incubated at 25° C. for 5-7 days, the bacteria count was recorded.
7) The above experiment was repeated with Pseudomonas aeruginosa ATCC 15442 (instead of using an inoculums from sludge), which is representative bacteria that form biofilms.
Microbial efficacy of different biocides against Pseudomonas aeruginosa (ATCC 15442) replacing the use activated sludge bacteria.

[3] = system: Inoculum of bacteria (Activated sludge taken from Domestic Waste Water treatment Plant—Haifa); test: Microbial efficacy (% bacteria killed) at different TOC loading, activated sludge inoculum (Example 60); conditions: 30 min, pH 7
Procedure: (§4) Inoculum of bacteria (Activated sludge taken from Domestic Waste Water treatment Plant—Haifa).
(§5) R2A agar for general counting.
(§6) Tryptone, in amounts 0.025, 0.119, and 0.239 g solid tryptone respectively, was weighed and dissolved in 1 liter of buffer.
Neutralization solution (NaHSO4). […]
1) 1 ml of inoculum was added to tryptone solutions (placed in 3 Erlenmeyers, 100 ml each, with different concentrations of TOC-0, 10 and 50 ppm).
(§7) 2) 1 ml of each sample was inoculated on R2A agar (pour plate method). The result stands for the bacteria count at zero time.
3) For each of the tryptone concentrations (0, 10, 50 ppm TOC) an inoculum of bacteria (1 ml) and the appropriate biocide concentration were added.
as §1, §2, §3

[4] = system: Inoculum of bacteria (Activated sludge taken from Domestic Waste Water treatment Plant—Haifa); test: Microbial efficacy (% kill) at different TOC loading, activated sludge inoculum (Examples 12-13); conditions: TOC 100 ppm, 30 min, pH 7
Procedure: as §4, §5, §6
Neutralization solution (NaHSO4).
The biocidal efficacy of the antifouling composition at different organic loads of 0, […], 50 and 100 ppm TOC, was examined under different biocidal concentrations (1, 2.5, and 5 ppm) at pH 7.
1) 1 ml of inoculum was added to tryptone solutions (placed in […], 100 ml each, with different concentrations of TOC-0, 10, 50 and 100 ppm).
as §7
3) For each of the tryptone concentrations (0, 10, 50, 100 ppm TOC) an inoculum of bacteria (1 ml) and the appropriate biocide concentration were added.
as §1, §2, §3

[5] = TOC 0 ppm, biocide 2.5 ppm as Cl2
[6] = TOC 0 ppm, biocide 5 ppm as Cl2
[7] = TOC 10 ppm, biocide 2.5 ppm as Cl2
[8] = TOC 10 ppm, biocide 5 ppm as Cl2
[9] = TOC 50 ppm, biocide 2.5 ppm as Cl2
[10] = TOC 50 ppm, biocide 5 ppm as Cl2

[Na+].[O-]Cl [NaOCl, reference compound]
survival of bacteria (CFU) ([1]; biocide 0.5 ppm as Cl2, contact time 0 (initial count)): 8.00 × 10^6 CFU
survival of bacteria (CFU) ([1]; biocide 0.5 ppm as Cl2, contact time 5 min): 7.90 × 10^6 CFU
survival of bacteria (CFU) ([1]; biocide 0.5 ppm as Cl2, contact time 15 min): 5.65 × 10^6 CFU
survival of bacteria (CFU) ([1]; biocide 0.5 ppm as Cl2, contact time 30 min): 4.72 × 10^6 CFU
survival of bacteria (CFU) ([1]; biocide 0.5 ppm as Cl2, contact time 60 min): 5.00 × 10^6 CFU
survival of bacteria (CFU) ([1]; biocide 1 ppm as Cl2, contact time 0 (initial count)): 8.00 × 10^6 CFU
survival of bacteria (CFU) ([1]; biocide 1 ppm as Cl2, contact time 5 min): 4.40 × 10^6 CFU
survival of bacteria (CFU) ([1]; biocide 1 ppm as Cl2, contact time 15 min): 3.30 × 10^6 CFU
survival of bacteria (CFU) ([1]; biocide 1 ppm as Cl2, contact time 30 min): 2.15 × 10^6 CFU
survival of bacteria (CFU) ([1]; biocide 1 ppm as Cl2, contact time 60 min): 1.20 × 10^6 CFU
survival of bacteria (CFU) ([1]; biocide 2.5 ppm as Cl2, contact time 0 (initial count)): 8.00 × 10^6 CFU
survival of bacteria (CFU) ([1]; biocide 2.5 ppm as Cl2, contact time 5 min): 3.60 × 10^6 CFU
survival of bacteria (CFU) ([1]; biocide 2.5 ppm as Cl2, contact time 15 min): 1.83 × 10^6 CFU
survival of bacteria (CFU) ([1]; biocide 2.5 ppm as Cl2, contact time 30 min): 7.60 × 10^6 CFU
survival of bacteria (CFU) ([1]; biocide 2.5 ppm as Cl2, contact time 60 min): 1.95 × 10^5 CFU
survival of bacteria (CFU) ([1]; biocide 5 ppm as Cl2, contact time 0 (initial count)): 8.00 × 10^6 CFU
survival of bacteria (CFU) ([1]; biocide 5 ppm as Cl2, contact time 5 min): 1.74 × 10^6 CFU
survival of bacteria (CFU) ([1]; biocide 5 ppm as Cl2, contact time 15 min): 6.80 × 10^6 CFU
survival of bacteria (CFU) ([1]; biocide 5 ppm as Cl2, contact time 30 min): 3. × 10^6 CFU
survival of bacteria (CFU) ([1]; biocide 5 ppm as Cl2, contact time 60 min): 1.00 × 10^0 CFU
% bacteria killed [2, 5]: 100%
% bacteria killed [2, 6]: 100%
% bacteria killed ([2]; TOC 0 ppm, biocide 10 ppm as Cl2): 100%
% bacteria killed [2, 7]: 43.10%
% bacteria killed [2, 8]: 100%
% bacteria killed ([2]; TOC 10 ppm, biocide 10 ppm as Cl2): 100%
% bacteria killed [2, 9]: 17.24%
% bacteria killed [2, 10]: 18.97%
% bacteria killed ([2]; TOC 50 ppm, biocide 10 ppm as Cl2): 100%
% bacteria killed ([2]; TOC 100 ppm, biocide 2.5 ppm as Cl2): 0%
% bacteria killed ([2]; TOC 100 ppm, biocide 5 ppm as Cl2): 27.59%
% bacteria killed ([2]; biocide 10 ppm as Cl2): 90.86%
% bacteria killed ([3]; TOC 0 ppm, biocide 1 ppm as Cl2): 54.1%
% bacteria killed [3, 5]: 95.5%
% bacteria killed [3, 6]: 99.6%
% bacteria killed ([3]; TOC 10 ppm, biocide 1 ppm as Cl2): 3.7%
% bacteria killed [3, 7]: 34.6%
% bacteria killed [3, 8]: 97.1%
% bacteria killed ([3]; TOC 50 ppm, biocide 1 ppm as Cl2): 0%
% bacteria killed [3, 9]: 12.7%
% bacteria killed [3, 10]: 65.9%
% kill ([4]; biocide 1 ppm as Cl2): 0%
% kill ([4]; biocide 2.5 ppm as Cl2): 0%
% kill ([4]; biocide 5 ppm as Cl2): 0%
